Experiments:
Settings in all cases: CAMHB, incubation time 20 h
ceftazidime = compound: CC(C)(O/N=C(\C(=O)N[C@@H]1C(=O)N2C(C(=O)[O-])=C(C[n+]3ccccc3)CS[C@H]12)c1csc(N)n1)C(=O)O [ceftazidime]
cefiderocol = compound: CC(C)(O/N=C(\C(=O)N[C@@H]1C(=O)N2C(C(=O)[O-])=C(C[N+]3(CCNC(=O)c4ccc(O)c(O)c4Cl)CCCC3)CS[C@H]12)c1csc(N)n1)C(=O)O [cefiderocol]
meropenem = compound: C[C@@H](O)[C@H]1C(=O)N2C(C(=O)O)=C(S[C@@H]3CN[C@H](C(=O)N(C)C)C3)[C@H](C)[C@H]12 [meropenem]

Test System	MIC (ceftazidime; avibactam 0 µg/mL) [µg/mL]	MIC (ceftazidime; avibactam 8 µg/mL) [µg/mL]	MIC (cefiderocol; avibactam 0 µg/mL) [µg/mL]	MIC (cefiderocol; avibactam 8 µg/mL) [µg/mL]	MIC (meropenem; avibactam 0 µg/mL) [µg/mL]	MIC (meropenem; avibactam 8 µg/mL) [µg/mL]
P. aeruginosa 20NB681421	4	4	1	1	1	0.5
B. multivorans F9091687	2	2	0.25	0.25	0.5	0.5
B. cenocepacia VC14488	–	2	0.25	0.25	4	1
P. aeruginosa PA14	2	2	1	1	0.5	0.25
B. cenocepacia BC7	16	16	> 4	> 4	16	1
S. maltophilia 03 T2510	32	32	1	1	> 64	> 64
B. dolosa CEP021	2	1	0.5	0.5	2	1
A. xylosoxidans ACH09	1	1	0.25	0.25	0.125	0.125
S. maltophilia 05 41846	4	4	0.5	0.5	> 64	> 64
B. multivorans LM013010	–	–	0.25	0.25	8	1
S. maltophilia 21NE928511	> 128	> 128	> 4	> 4	> 64	> 64
B. gladioli 113611	32	32	4	4	2	2
B. multivorans 134955	8	8	0.125	0.125	8	1
B. cenocepacia 134991	8	8	> 4	> 4	2	2
B. vietnamiensis VC18984	16	–	> 4	> 4	8	4
B. cenocepacia VC10414	8	–	0.125	0.125	32	2
B. cenocepacia VC14543	8	8	0.125	0.0625	16	4
B. multivorans 131077	8	8	0.125	0.125	4	1
B. multivorans VC9825	2	2	0.25	0.125	2	1
B. cenocepacia F4200989-3	128	32	2	1	32	4
A. xylosoxidans ACH03	1	1	0.125	0.125	0.25	0.25
P. aeruginosa 71	> 128	4	4	4	32	4
B. multivorans VC15535	32	16	0.5	0.5	16	8
B. gladioli 132208	2	2	0.5	0.5	0.5	0.5
S. maltophilia D457	1	1	0.125	0.125	32	32
B. contaminans 21NG595759	16	8	1	2	32	8
B. dolosa AU0645	> 128	8	> 4	> 4	16	2
B. multivorans VC19694	–	1	1	1	8	4

From the supplement of paper PMC10412643
